Where two headings read alike, the source gives them in different places.
Key:
[1] = target: T1, human alpha 7-wt nAChR (Homo sapiens, UniProt P36544); assay: Ca2+ flux imaging (FDSS) (protocol B); format: cell-based; conditions: for EC50: read-out: pEC50 (converted); for Emax: read-out: % Efficacy
T1 construct: expressed in transfected cells
How it was run: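 Fluo-4AM-loaded (2 µM) cells expressing human α7-wt nAChR in HEPES-HBSS with 5 mM CaCl2. Compounds (0.01–30 µM) were added, possibly 10 min before, with choline 100 µM, and peak fluorescence was monitored by FDSS. Potentiation was relative to the choline response, set as 100%; EC50 came from sigmoidal curves.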

[2] = target: T1, human alpha 7-wt nAChR; assay: Patch-clamp current recording (whole-cell voltage-clamp, GH4C1 cells); format: cell-based; set-up: key: Type 0 compounds minimally change the effect size of the current elicited by 1 mM choline.; Type 1 compounds enhance the effect size of the current elicited by 1 mM choline but minimally alter the kinetics of the receptor.; Type 2 compounds enhance the effect size of the current elicited by 1 mM choline while reducing the rate and/or the extent of desensitization.; Type 3 compounds enhance the effect size of the current elicited by 1 mM choline. When tested at higher concentrations up to 10 µM they completely inhibit desensitization; Type 4 compounds allow for an initial desensitization of the receptor followed by a re-opening of the receptor during agonist application; conditions: current elicited by 1 mM choline
Method: The compounds of the present invention are classified as type 1-4, based on qualitative kinetic properties, as determined by whole-cell voltage-clamp recordings. This classification is based on the effect of an alpha 7 PAM compound, as described hereinbefore, on the signal elicited by an agonist application. In particular, said agonist is choline at a concentration of 1mM. In a preferred experimental setting, said alpha 7 PAM compound and choline are simultaneously applied to the cell, as described hereinafter. Desensitization is defined as the closure of the receptor upon activation during the application of the agonist in whole-cell voltage-clamp electrophysiology measurements seen as the reduction of the […] current after initial activation by the agonist.
The definition of the PAM types 1-4 is described hereinafter: Type 0 compounds minimally change the effect size of the current elicited by 1 mM choline. Type 1 compounds enhance the effect size of the current elicited by 1 mM choline but minimally alter the kinetics of the receptor. In particular, the rate and the extent of desensitization and of deactivation of the receptor elicited by the agonist is not affected. The compound-modulated response to 1 mM choline, therefore, is close to a linear scaling of the 1 mM choline response in absence of the alpha 7 PAM compound: Type 2 compounds enhance the effect size of the current elicited by 1 mM choline while reducing the rate and/or the extent of desensitization. Deactivation of the receptor is generally unaffected. Type 3 compounds enhance the effect size of the current elicited by 1 mM choline. […] Deactivation of the receptor may be slowed down. Type 4 compounds allow for an initial desensitization of the receptor followed by a re-opening of the receptor during agonist application. At low-potency concentrations of the alpha 7 PAM compound, the agonist-induced activation, which is followed by desensitization, can still be separated from the compound-induced re-opening as an initial inward current-maximum. At higher potency concentrations of the alpha 7 PAM compound, the re-opening occurs faster than the closure due to desensitization so that the initial current-maximum disappears.
A compound was considered to have interesting PAM-like activity when the potentiation of the peak current was at least 200% compared to the control choline response (= 100%). Such compounds are classified as belonging to a particular PAM type in the Experimental Part. Compounds not meeting the condition are not classified as belonging to a particular PAM-type.
The compounds also have a potentiating effect on the response to choline when measured by whole-cell patch clamp electrophysiology in GH4C1 cells stably over-expressing the human wild-type alpha 7 receptor.
Example D.2 : Patch-clamp current recording
Patch-clamp recording from mammalian cells has provided a powerful means of assessing the function of membrane-bound proteins thought to be subunits of ligand-gated ion channels. Activation of such proteins by endogenous or exogenous ligands cause opening of a pore associated with the receptor through which ions flow down their electrochemical gradient. In the case of the human alpha 7-wt nAChR-expressing GH4C1 recombinant cell line the preferential permeability to calcium of this receptor means that calcium flows into the cell upon activation by ACh, choline and other nicotinic ligands giving rise to a calcium current. Since this receptor rapidly desensitizes in the presence of agonist it is important that an application system is used which is capable of very rapid switching of solutions (< 100 ms) to prevent partial or full desensitisation of receptor responses coincident with the time of agonist application. Consequently, a second convenient technique to assess the enhancement of nicotinic efficacy is a patch-clamp recording from human alpha 7-wt nAChR-expressing GH4C1 cells coupled with a rapid-application system. […]

T1 sequence (P36544 23-502): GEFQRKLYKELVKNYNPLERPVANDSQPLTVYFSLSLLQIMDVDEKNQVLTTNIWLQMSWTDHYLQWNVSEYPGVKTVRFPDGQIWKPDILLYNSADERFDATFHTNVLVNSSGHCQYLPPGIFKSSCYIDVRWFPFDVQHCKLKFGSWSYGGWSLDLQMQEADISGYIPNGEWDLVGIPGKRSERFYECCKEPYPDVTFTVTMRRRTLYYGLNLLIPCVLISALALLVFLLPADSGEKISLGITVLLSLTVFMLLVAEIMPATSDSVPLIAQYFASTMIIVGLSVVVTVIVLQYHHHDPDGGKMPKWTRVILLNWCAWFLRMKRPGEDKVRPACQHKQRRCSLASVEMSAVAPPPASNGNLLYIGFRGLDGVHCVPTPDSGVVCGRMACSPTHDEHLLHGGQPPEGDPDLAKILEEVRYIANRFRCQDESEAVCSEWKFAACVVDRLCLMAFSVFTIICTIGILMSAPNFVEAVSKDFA

Emax ([1]; Ca2+ assay as described in D.1) | Compound | EC50 ([1]; Ca2+ assay as described in D.1) | Emax [1] | PAM type [2]
 | Cc1cc(-c2cc(F)c(N3C[C@@H](C)O[C@@H](C)C3)cc2CNC(=O)C2CC2)cc(C)n1 [Compound 126] | 575 nM | 352% | 2
 | Cc1cc(-c2c(F)cc(N3C[C@@H](C)O[C@@H](C)C3)cc2CNC(=O)c2conc2C)ccn1 [Compound 91] | 61.7 nM |  | 2
 | Cc1cc(-c2c(Cl)cc(N3C[C@@H](C)O[C@@H](C)C3)cc2CNC(=O)CC2CC2)cc(C)n1 [Compound 119] | 28.8 nM | 624% | 2
 | Cc1cc(-c2c(F)cc(N3CCO[C@H](C(F)(F)F)C3)cc2CNC(=O)CC2CCC2)cc(C)n1 [Compound 105] | 17 nM | 559% | 3
528% | CC(C)C(=O)NCc1cc(N2CCOCC2)ccc1-c1ccncc1 [Compound 137] |  |  | 0
 | Cc1cc(-c2c(F)cc(N3CCOC(C)C3)cc2CNC(=O)CC(C)C)cc(C)n1 (centres unmarked) [Compound 116] | 20.9 nM | 374% | 3
 | Cc1cc(-c2ccc(N3C[C@@H](C)O[C@@H](C)C3)c(CNC(=O)c3cc(C)on3)c2)cc(C)n1 [Compound 133] | 50.1 nM |  | 0
 | Cc1cc(-c2ccc(N3C[C@@H](C)O[C@@H](C)C3)c(CNC(=O)c3conc3C)c2)cc(C)n1 [Compound 136] | 129 nM |  | 3
 | Cc1cc(-c2c(Cl)cc(N3C[C@@H](C)O[C@@H](C)C3)cc2CNC(=O)C(C)C)cc(C)n1 [Compound 121] | 38 nM | 435% | 2
 | Cc1cc(-c2c(F)cc(N3CCO[C@@H](C(F)(F)F)C3)cc2CNC(=O)C2CC2)cc(C)n1 [Compound 102] | 33.1 nM | 962% | 3
 | Cc1cc(-c2ccc(N3C[C@@H](C)O[C@@H](C)C3)cc2CNC(=O)C2CC2)cc(C)n1 [Compound 6] | 120 nM |  | 2
 | Cc1cc(-c2c(F)cc(N3CCO[C@H](C(F)(F)F)C3)cc2CNC(=O)c2conc2C)cc(C)n1 [Compound 106] | 36.3 nM | 159% | 2
 | Cc1cc(-c2ccc(N3C[C@@H](C)O[C@@H](C)C3)cc2CNC(=O)CC2CC2)cc(C)n1 [Compound 1, N-[[5-[(2R,6S)-2,6-dimethyl-4-morpholinyl]-2-(2,6-dimethyl-4-pyridinyl)phenyl]methyl]-cyclopropaneacetamide] | 40.7 nM |  | 3
 | Cc1cc(-c2cc(F)c(N3C[C@@H](C)O[C@@H](C)C3)cc2CNC(=O)c2cc(C)on2)cc(C)n1 [Compound 127] | 550 nM | 554% | 1
 | Cc1cc(-c2c(F)cc(N3CCO[C@H](C(F)(F)F)C3)cc2CNC(=O)C(C)C)cc(C)n1 [Compound 107] | 30.9 nM | 266% | 2
 | Cc1cc(-c2c(F)cc(N3CCO[C@H](C(F)(F)F)C3)cc2CNC(=O)CC2CC2)cc(C)n1 [Compound 108] | 18.6 nM | 432% | 2
 | Cc1cc(-c2c(F)cc(N3CCO[C@@H](C(F)(F)F)C3)cc2CNC(=O)c2cc(C)on2)cc(C)n1 [Compound 100] | 155 nM |  | 2
 | Cc1cc(-c2c(F)cc(N3CCO[C@@H](C(F)(F)F)C3)cc2CNC(=O)C(C)C)cc(C)n1 [Compound 99] | 9.77 nM | 292% | 3

From patent EP2678315B1, “(Pyridin-4-yl)benzylamides as allosteric modulators of alpha 7 nAChR” (Janssen Pharmaceutica, N.V., priority 2011, dated 2012)
